# Columns and labels:
# [1] = Acute toxicity in rat; conditions: in vivo
# [2] = Half-life in Sprague-Dawley rat at 150 mg/kg, po measured for 24 hrs by LC-MS/MS analysis; assay type: ADME, organism-based; conditions: in vivo
# [3] = Protein binding in human plasma; assay type: ADME, cell-free; conditions: read-out: PPB (converted)
# [4] = AUC (0 to 24 hrs) in Beagle dog at 20 mg/kg, po by LC-MS/MS analysis; assay type: ADME, organism-based, Canis lupus familiaris; parameters: time < 24 hr, dose 20 mg/kg, route oral; conditions: in vivo
# [5] = Unbound fraction in Sprague-Dawley rat brain by LC-MS/MS analysis; assay type: ADME, tissue-based
# [6] = Acute toxicity in rat assessed as effect on blood chemistry parameters up to 300 mg/kg measured for 7 days; assay type: organism-based; conditions: in vivo, 168 h
# Rattus norvegicus [7] = assay: Anti-premature ejaculation activity in anesthetized oxytocin-induced uterine contraction Sprague-Dawley rat model assessed as decrease in intraluminal uterine pressure at 30 mg/kg, po treated for 20 mins and 1 hr later treated with oxytocin and measured for 15 to 30 mins relative to control; assay type: functional
# [8] = Plasma concentration in Sprague-Dawley rat by LC-MS/MS analysis; assay type: ADME, cell-free
# [9] = Acute toxicity in rat assessed as effect on clinical parameters up to 300 mg/kg measured for 7 days; assay type: organism-based; conditions: in vivo, 168 h
# [10] = Clearance in nude mouse at 1 mg/kg, iv measured for 24 hrs by LC-MS/MS analysis; assay type: ADME, organism-based; conditions: in vivo
# Rattus norvegicus [11] = assay: Anti-premature ejaculation activity in anesthetized oxytocin-induced uterine contraction Sprague-Dawley rat model assessed as decrease in intraluminal uterine pressure administered orally for 20 mins and 1 hr later treated with oxytocin and measured for 15 to 30 mins relative to control; assay type: functional
# [12] = Cmax in nude mouse at 4 mg/kg, po measured for 24 hrs by LC-MS/MS analysis; assay type: ADME, organism-based; parameters: dose 4 mg/kg, route oral; conditions: in vivo
# [13] = Cmax in Sprague-Dawley rat at 30 mg/kg, po measured for 24 hrs by LC-MS/MS analysis; assay type: ADME, organism-based; parameters: dose 30 mg/kg, route oral; conditions: in vivo
# [14] = Safety index, ratio of NOAEL in rat to EC50 for inhibition of oxytocin-induced contractile response in po dosed Sprague-Dawley rat; assay type: toxicity, organism-based; conditions: in vivo
# [15] = Tmax in Beagle dog at 2 mg/kg, po measured for 24 hrs by LC-MS/MS analysis; assay type: ADME, organism-based, Canis lupus familiaris; conditions: in vivo
# [16] = Hepatic clearance in mouse liver microsomes by LC-MS/MS analysis; assay type: ADME, Microsome
# [17] = Acute toxicity in rat assessed as effect on body weight at up to 300 mg/kg measured for 7 days; assay type: organism-based; conditions: in vivo, 168 h
# [18] = Hepatic clearance in rat liver microsomes by LC-MS/MS analysis; assay type: ADME, Microsome
# [19] = Solubility of compound in PBS at pH 7.4; assay type: physicochemical
# [20] = Tmax in Sprague-Dawley rat at 150 mg/kg, po measured for 24 hrs by LC-MS/MS analysis; assay type: ADME, organism-based; conditions: in vivo
# [21] = Clearance in Sprague-Dawley rat at 1 mg/kg, iv measured for 24 hrs by LC-MS/MS analysis; assay type: ADME, organism-based; conditions: in vivo
# Homo sapiens = species on record: Homo sapiens; assay: Selectivity ratio of IC50 for human vasopressin V1B receptor expressed in HEK293 cells to IC50 for human OTR expressed in HEK293 cells; assay type: cell-based
# Cytochrome P450 2C19 = Cytochrome P450 2C19 (Homo sapiens, UniProt P33261); assay: Inhibition of human recombinant CYP2C19; assay type: ADME
# Cytochrome P450 2C19, sequence (P33261 whole entry): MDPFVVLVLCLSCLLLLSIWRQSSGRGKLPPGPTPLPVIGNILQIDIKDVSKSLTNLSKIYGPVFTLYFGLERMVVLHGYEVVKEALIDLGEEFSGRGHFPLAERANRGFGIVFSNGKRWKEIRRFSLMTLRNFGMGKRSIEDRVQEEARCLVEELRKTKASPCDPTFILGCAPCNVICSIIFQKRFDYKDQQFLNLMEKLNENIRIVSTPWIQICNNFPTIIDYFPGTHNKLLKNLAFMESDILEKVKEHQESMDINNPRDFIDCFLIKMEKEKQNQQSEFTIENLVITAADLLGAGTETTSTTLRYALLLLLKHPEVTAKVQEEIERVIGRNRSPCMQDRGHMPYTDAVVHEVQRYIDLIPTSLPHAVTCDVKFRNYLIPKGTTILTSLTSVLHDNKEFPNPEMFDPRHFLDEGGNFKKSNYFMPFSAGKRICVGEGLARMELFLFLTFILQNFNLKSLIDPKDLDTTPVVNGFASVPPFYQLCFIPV
# Rattus norvegicus [22] = assay: Anti-premature ejaculation activity in anesthetized oxytocin-induced uterine contraction Sprague-Dawley rat model assessed as decrease in intraluminal uterine pressure at 10 mg/kg, po treated for 20 mins and 1 hr later treated with oxytocin and measured for 15 to 30 mins relative to control; assay type: functional
# [23] = AUC (0 to 24 hrs) in Sprague-Dawley rat at 2 mg/kg, po by LC-MS/MS analysis; assay type: ADME, organism-based; parameters: time < 24 hr, dose 2 mg/kg, route oral; conditions: in vivo
smiles,measurement,setting,value
COCc1nnc(N2C[C@@H]3C[C@]3(c3ccc(F)cc3Cl)C2)n1-c1ccc(OC)nc1,MTD,[1],> 900 mg/kg
same,NOAEL,[1],300 mg/kg
same,half-life,[2],194 min
same,fraction unbound,[3],0.0352
same,AUC(0-t) at 24 h,[4],58.7 µg·h/mL
same,fraction unbound,[5],0.0166
same,Activity,[6],Non-Toxic
same,inhibition in vivo at 30 mg/kg,Rattus norvegicus [7],65%
same,Cp,[8],1.379 µg/mL
same,Activity,[9],Non-Toxic
same,clearance,[10],1.88 L/h/kg
same,ED,Rattus norvegicus [11],30 mg/kg
same,inhibition,Rattus norvegicus [11],Dose-dependent effect
same,Cmax,[12],0.33 µg/mL
same,Cmax,[13],3.31 µg/mL
same,selectivity ratio,[14],10
same,Tmax,[15],45 min
same,CLhep predicted,[16],4.64 L/h/kg
same,Activity,[17],Non-Toxic
same,CLhep predicted,[18],3.29 L/h/kg
same,solubility,[19],420 µM
same,Tmax,[20],40.2 min
same,clearance,[21],0.966 L/h/kg
same,Ratio IC50,Homo sapiens,2500
same,IC50,Cytochrome P450 2C19,11 µM
same,inhibition in vivo at 10 mg/kg,Rattus norvegicus [22],17.6%
same,AUC(0-t) at 24 h,[23],1.68 µg·h/mL
